These results are taken from ChEMBL document CHEMBL1134035, “Novel 5,5-disubstitutedpyrimidine-2,4,6-triones as selective MMP inhibitors” (Bioorg Med Chem Lett, 2001).

One assay has as its target T1, Interstitial collagenase (Homo sapiens, UniProt P03956).
T1 sequence (P03956 whole entry): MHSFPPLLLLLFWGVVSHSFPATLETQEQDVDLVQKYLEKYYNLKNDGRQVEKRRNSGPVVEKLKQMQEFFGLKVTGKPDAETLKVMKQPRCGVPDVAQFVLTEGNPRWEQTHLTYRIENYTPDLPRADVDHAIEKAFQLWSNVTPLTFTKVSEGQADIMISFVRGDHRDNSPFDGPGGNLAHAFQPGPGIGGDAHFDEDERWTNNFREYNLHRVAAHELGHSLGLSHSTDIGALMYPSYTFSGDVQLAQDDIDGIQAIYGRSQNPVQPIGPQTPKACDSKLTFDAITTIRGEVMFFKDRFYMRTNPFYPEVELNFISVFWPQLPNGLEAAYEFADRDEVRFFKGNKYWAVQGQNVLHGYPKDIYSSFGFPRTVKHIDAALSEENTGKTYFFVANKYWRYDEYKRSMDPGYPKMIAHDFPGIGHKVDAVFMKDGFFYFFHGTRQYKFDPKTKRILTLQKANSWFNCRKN
In words: Inhibition of Matrix metalloprotease-1.

Assay [1] has as its target 72 kDa type IV collagenase (Homo sapiens, UniProt P08253). In words: Inhibition of Gelatinase A, matrix metalloprotease-2.
A further assay deals with T2, Matrilysin (Homo sapiens, UniProt P09237).
T2 sequence (P09237 whole entry): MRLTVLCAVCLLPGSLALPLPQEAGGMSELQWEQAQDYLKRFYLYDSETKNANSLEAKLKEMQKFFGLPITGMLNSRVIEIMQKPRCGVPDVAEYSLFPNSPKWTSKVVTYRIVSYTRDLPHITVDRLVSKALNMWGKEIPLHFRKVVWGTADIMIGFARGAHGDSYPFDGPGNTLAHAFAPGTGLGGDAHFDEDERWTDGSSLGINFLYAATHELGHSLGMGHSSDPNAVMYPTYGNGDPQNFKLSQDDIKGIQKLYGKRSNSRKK
In words: Inhibition of matrilysin, Matrix metalloprotease-7.

In assay [2] the target is Matrix metalloproteinase-9 (Homo sapiens, UniProt P14780). In words: Inhibition of Gelatinase B, matrix metalloprotease-9.
Chain of Matrix metalloproteinase-9 (P14780 whole entry): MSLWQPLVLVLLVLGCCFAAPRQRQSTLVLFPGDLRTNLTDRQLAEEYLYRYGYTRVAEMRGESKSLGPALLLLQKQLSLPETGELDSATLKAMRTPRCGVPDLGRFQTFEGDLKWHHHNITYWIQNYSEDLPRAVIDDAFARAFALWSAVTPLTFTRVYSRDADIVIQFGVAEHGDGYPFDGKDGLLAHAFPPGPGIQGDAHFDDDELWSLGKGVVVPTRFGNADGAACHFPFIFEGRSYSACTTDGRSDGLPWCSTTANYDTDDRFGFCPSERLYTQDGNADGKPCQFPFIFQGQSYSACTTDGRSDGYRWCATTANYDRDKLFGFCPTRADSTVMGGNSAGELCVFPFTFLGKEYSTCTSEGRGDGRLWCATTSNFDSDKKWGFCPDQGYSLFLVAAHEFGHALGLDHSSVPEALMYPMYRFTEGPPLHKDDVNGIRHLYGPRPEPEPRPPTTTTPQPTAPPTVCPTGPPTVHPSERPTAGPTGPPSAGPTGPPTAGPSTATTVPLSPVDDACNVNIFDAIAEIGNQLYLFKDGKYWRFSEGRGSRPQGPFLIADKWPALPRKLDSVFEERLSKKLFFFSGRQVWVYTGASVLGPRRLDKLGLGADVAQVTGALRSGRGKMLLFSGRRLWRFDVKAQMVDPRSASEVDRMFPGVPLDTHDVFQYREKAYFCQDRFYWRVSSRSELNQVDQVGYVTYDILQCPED
The target of the next assay is Stromelysin-1 (Homo sapiens, UniProt P08254). In words: Inhibition of Stromelysin, matrix metalloprotease-3.
Chain of Stromelysin-1 (P08254 whole entry): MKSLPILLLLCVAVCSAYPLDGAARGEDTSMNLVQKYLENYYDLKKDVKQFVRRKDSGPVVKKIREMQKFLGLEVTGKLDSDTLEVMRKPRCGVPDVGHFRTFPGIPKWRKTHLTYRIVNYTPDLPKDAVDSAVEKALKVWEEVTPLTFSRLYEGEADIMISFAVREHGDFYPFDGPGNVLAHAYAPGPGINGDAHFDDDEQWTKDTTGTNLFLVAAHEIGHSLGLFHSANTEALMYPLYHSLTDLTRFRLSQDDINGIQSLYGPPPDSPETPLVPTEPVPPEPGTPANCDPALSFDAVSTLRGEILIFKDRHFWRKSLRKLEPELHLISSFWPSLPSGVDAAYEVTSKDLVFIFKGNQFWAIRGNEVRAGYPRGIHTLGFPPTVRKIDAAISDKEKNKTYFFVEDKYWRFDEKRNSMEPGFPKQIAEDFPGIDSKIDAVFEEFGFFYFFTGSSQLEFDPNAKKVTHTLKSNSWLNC
The next assay deals with Neutrophil collagenase (Homo sapiens, UniProt P22894). In words: Inhibition of human neutrophil collagenase-I, Matrix metalloprotease-8.
Chain of Neutrophil collagenase (P22894 whole entry): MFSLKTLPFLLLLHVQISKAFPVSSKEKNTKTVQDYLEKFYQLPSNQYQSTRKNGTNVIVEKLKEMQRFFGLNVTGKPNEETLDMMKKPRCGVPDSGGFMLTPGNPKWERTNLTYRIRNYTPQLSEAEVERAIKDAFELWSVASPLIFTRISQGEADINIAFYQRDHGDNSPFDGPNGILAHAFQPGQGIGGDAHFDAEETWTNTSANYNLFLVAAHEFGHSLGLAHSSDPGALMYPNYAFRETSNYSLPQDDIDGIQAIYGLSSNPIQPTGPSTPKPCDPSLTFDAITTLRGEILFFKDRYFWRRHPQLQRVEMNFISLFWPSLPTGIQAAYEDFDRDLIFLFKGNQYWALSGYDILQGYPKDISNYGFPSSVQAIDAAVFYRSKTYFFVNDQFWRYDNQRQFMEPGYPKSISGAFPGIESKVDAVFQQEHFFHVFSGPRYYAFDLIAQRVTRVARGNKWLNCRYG

Usually IC50 stands for the point on the concentration scale where inhibition reaches its midpoint. Low values mean higher potency, high ones lower potency.

Bounds are passed on as bounds.

Chain of 72 kDa type IV collagenase (P08253 whole entry): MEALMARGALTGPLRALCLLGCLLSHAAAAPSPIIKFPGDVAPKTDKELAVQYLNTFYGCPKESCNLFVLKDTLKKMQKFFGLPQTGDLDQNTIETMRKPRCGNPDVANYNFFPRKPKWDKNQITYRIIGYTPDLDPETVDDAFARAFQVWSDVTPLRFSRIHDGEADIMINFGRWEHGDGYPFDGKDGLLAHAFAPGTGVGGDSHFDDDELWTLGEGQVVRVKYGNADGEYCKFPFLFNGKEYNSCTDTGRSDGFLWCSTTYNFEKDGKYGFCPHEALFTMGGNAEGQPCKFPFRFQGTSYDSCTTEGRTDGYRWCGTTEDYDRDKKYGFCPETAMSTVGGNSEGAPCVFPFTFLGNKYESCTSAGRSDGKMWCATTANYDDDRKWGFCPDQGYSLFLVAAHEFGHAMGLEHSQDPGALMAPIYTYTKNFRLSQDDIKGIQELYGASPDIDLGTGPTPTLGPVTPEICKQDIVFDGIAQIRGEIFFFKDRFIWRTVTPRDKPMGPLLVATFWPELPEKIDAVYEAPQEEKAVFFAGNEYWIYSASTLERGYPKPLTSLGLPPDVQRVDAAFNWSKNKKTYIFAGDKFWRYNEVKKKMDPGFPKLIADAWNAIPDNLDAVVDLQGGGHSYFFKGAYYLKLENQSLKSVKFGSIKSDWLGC

For the compound `CCCCCCC1(c2ccccc2)C(=O)NC(=O)NC1=O`, the IC50 on Interstitial collagenase is more than 2 µM; in assay [1], 1.3 µM; on Matrilysin, more than 50 µM; in assay [2] it was 0.33 µM; at Stromelysin-1, 30 µM.
In the case of `O=C1NC(=O)C(CCO)(c2ccc(Oc3ccccc3)cc2)C(=O)N1`, the IC50 at Interstitial collagenase was more than 2 µM; against Matrilysin, more than 50 µM.
On to `CCCCCCC1(c2ccc(-c3ccccc3)cc2)C(=O)NC(=O)NC1=O`, for which the IC50 against Interstitial collagenase is more than 2 µM; in assay [1], 0.868 µM; on Matrilysin, more than 50 µM; in assay [2], 0.863 µM.
Take `CC1(c2ccc(Oc3ccccc3)cc2)C(=O)NC(=O)NC1=O`: the IC50 is more than 2 µM at Interstitial collagenase; 0.081 µM in assay [1]; more than 50 µM on Matrilysin; 2 µM at Stromelysin-1; 0.081 µM against Neutrophil collagenase.
Regarding `O=C1NC(=O)C(c2ccc(Oc3ccccc3)cc2)C(=O)N1`, the IC50 at Interstitial collagenase was more than 2 µM; in assay [1], 9 µM; at Matrilysin, more than 50 µM; in assay [2], 14 µM.
On to `CCCCCCC1(c2ccc(Oc3ccccc3)cc2)C(=O)NC(=O)NC1=O`, for which the IC50 was more than 2 µM against Interstitial collagenase; 0.021 µM in assay [1]; more than 50 µM on Matrilysin; 0.018 µM in assay [2]; 2 µM against Stromelysin-1; 0.13 µM at Neutrophil collagenase.
Consider `CCCCCCC1(c2ccc(-c3ccccc3)cc2)C(=O)NC(=S)NC1=O`, for which the IC50 at Interstitial collagenase is more than 2 µM; in assay [1], 13 µM; at Matrilysin, more than 50 µM; in assay [2], 12 µM.
Take `CCCCCCCCOc1ccc(CC2(C)C(=O)NC(=O)NC2=O)cc1`: the 50% inhibitory concentration (IC50) at Interstitial collagenase is more than 2 µM; in assay [1], 0.53 µM; against Matrilysin it was more than 50 µM; in assay [2], 0.164 µM; at Stromelysin-1 it was 1 µM.
Consider `O=C1NC(=O)C(COCc2ccccc2)(c2ccc(Oc3ccccc3)cc2)C(=O)N1`, for which the IC50 against Interstitial collagenase was more than 2 µM; in assay [1] it was 0.019 µM; against Matrilysin, more than 50 µM; in assay [2] it was 0.017 µM; against Stromelysin-1, 0.93 µM.
`CC1(c2ccccc2)C(=O)NC(=O)NC1=O`: the IC50 was more than 2 µM on Interstitial collagenase, 50 µM in assay [1], more than 50 µM against Matrilysin and 11 µM in assay [2].
As to `CN1C(=O)NC(=O)C(C)(c2ccc(Oc3ccccc3)cc2)C1=O` (stereo not drawn), the IC50 at Interstitial collagenase is more than 2 µM; in assay [1], more than 50 µM; against Matrilysin, more than 50 µM; in assay [2], more than 50 µM.
For the compound `CCC1(c2ccc(-c3ccccc3)cc2)C(=O)NC(=O)NC1=O`, the IC50 at Interstitial collagenase was more than 2 µM; in assay [1], 0.898 µM; against Matrilysin it was more than 50 µM; in assay [2], 0.696 µM; on Stromelysin-1 it was 9 µM.
